Among the data in patent US20250099448A1, “HETEROCYCLIC COMPOUNDS” (Hoffmann-La Roche Inc., priority 2022, published 2025) are IC50 values, retold here.

Molecules are shown by their SMILES.

For orientation: IC50 means the concentration at which inhibition is half-maximal. Low values mean greater potency in that assay, high ones weaker potency in that assay.

In this assay the target is T1, MAGL protein (Homo sapiens, UniProt Q99685).
T1 sequence (Q99685 1-303): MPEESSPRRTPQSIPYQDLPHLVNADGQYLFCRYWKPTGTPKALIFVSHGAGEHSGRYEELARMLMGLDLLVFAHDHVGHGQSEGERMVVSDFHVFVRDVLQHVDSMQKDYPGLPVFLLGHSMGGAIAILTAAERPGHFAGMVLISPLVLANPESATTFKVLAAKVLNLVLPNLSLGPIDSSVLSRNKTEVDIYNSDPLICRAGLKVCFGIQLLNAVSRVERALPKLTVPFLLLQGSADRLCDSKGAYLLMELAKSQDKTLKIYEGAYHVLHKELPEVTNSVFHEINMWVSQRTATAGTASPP
Description: 2-AG assay: MAGL inhibitory activity by hydrolysis of 2-arachidonoylglycerol to arachidonic acid, followed by mass spectrometry. Format: biochemical. Particulars: 8 μM 2-arachidonoylglycerol, 15 min preincubation, 30 min reaction at RT, RapidFire MS readout. Put shortly: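 MAGL was preincubated 15 min at RT with compound (12.5 to […], 3-fold steps) in 50 mM TRIS, 1 mM EDTA, 0.01% Tween-20, 2.5% DMSO. The reaction ran 30 min at RT with 8 μM 2-AG. Arachidonic acid was quantified by RapidFire SPE-MS/MS against a d8-arachidonic acid internal standard.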
`O=C(N1CC2(CCC(Cc3nnc(C(F)(F)F)[nH]3)CC2)C1)N1CC2(CC(c3nc(C4CC4)n[nH]3)C2)C1` [compound 436] displayed an IC50 of 32.3 nM.

Molecule `O=C(N1CC(C23CC(Cc4ccc(C(F)(F)F)cc4F)(C2)C3)C1)N1CC2(CC(c3nc(C4(O)CC4)n[nH]3)C2)C1` [compound 438] came in with a 50% inhibitory concentration (IC50) of 3.46 nM. This IC50 is about 9.3-fold lower than that of the molecule before.

Turning to `CC(C)(C)Cc1nnc(C23CC(C4CCN(C(=O)N5CC6(CC(c7nc(C8CC8)n[nH]7)C6)C5)CC4)(C2)C3)o1` [compound 439], the IC50 amounted to 4.22 nM.

In the case of `Cc1nn(CC(F)(F)F)cc1CN1CC2(C1)CN(C(=O)N1CC3(CC(c4nc(C5CC5)n[nH]4)C3)C1)C2` [compound 440], the IC50 stood at 109 nM. Compared with the last molecule, the IC50 is about 26-fold higher.

`O=C(N1CC2(CC(Cn3cnc(C(F)(F)F)n3)C2)C1)N1CC2(CC(c3nc(C4CC(F)(F)C4)n[nH]3)C2)C1` [compound 441]: the IC50 came to 414 nM.

Take `O=C(N1CC(c2cnc(CNC3(C(F)(F)F)CC3)cn2)C1)N1CC2(CC(c3nc(C4CC4)n[nH]3)C2)C1` [compound 443]: the IC50 came out at 2.47 nM.

For the molecule `O=C(N1CC2(CC(Cn3ncnc3C(F)(F)F)C2)C1)N1CC2(CC(c3nc(C4CC4)n[nH]3)C2)C1` [compound 444], the IC50 is 3.25 nM.

With `Cc1cc(C(F)(F)F)nn1CC1CC2(C1)CN(C(=O)N1CC3(CC(c4nc(C5CC5)n[nH]4)C3)C1)C2` [compound 445], the IC50 was 0.24 nM.

The molecule `O=C(N1CC2(CC(c3nc(C4CC4)n[nH]3)C2)C1)N1CC2(CC(C(F)(F)c3ccc(C(F)(F)F)nn3)C2)C1` [compound 446] showed an IC50 of 1.71 nM.

As for `O=C(N1CC(C23CC(c4nnc(C5(C(F)(F)F)CC5)s4)(C2)C3)C1)N1CC2(CC(c3nc(C4(O)CC4)n[nH]3)C2)C1` [compound 447], half-maximal inhibition (IC50) was put at 101 nM.

`O=C(N1CC2(CC(c3nc(C4(O)CC4)n[nH]3)C2)C1)N1CC2(CC(C(F)(F)c3ccc(C(F)(F)F)nn3)C2)C1` [compound 448] displayed a half-maximal inhibitory concentration (IC50) of 8.2 nM.

In the case of `O=C(N1CC2(CC(Cc3nsc(C(F)(F)F)n3)C2)C1)N1CC2(CC(c3nc(C4CC4)n[nH]3)C2)C1` [compound 450], the IC50 is 0.24 nM.

`O=C(N1CC2(CC(c3nc(C4(O)CC4)n[nH]3)C2)C1)N1CC2(CN(Cc3ccc(S(=O)(=O)C(F)(F)F)cc3F)C2)C1` [compound 451] came in with a 50% inhibitory concentration (IC50) of 1.52 nM. Against the preceding molecule, the IC50 is about 6.3-fold higher.

On to `O=C(N1CC2(CC(Cc3ccc(C(F)(F)F)nn3)C2)C1)N1CC2(CC(c3nc(C4CC(F)(F)C4)n[nH]3)C2)C1` [compound 452], for which the concentration for half-maximal inhibition (IC50) is 413 nM.

`O=C(N1CC2(CC(Cn3ccnc3C(F)(F)F)C2)C1)N1CC2(CC(c3nc(C4CC4)n[nH]3)C2)C1` [compound 453] yielded a half-maximal inhibitory concentration (IC50) of 1.73 nM.

Consider `CS(=O)(=O)c1cc(Cl)ccc1-c1ccc(C2CN(C(=O)N3CC4(CC(c5ncn[nH]5)C4)C3)C2)cc1` [compound 454], for which the IC50 turned out to be 129 nM.

Take `O=C(N1CC2(CC(Cc3cc(F)cc(C(F)(F)F)c3)C2)C1)N1CC2(CC(c3nc(C4CC(F)(F)C4)n[nH]3)C2)C1` [compound 455]: inhibition was half-maximal at 7.1 nM (IC50). Compared with the last molecule, the IC50 is about 18-fold lower.

`O=C(N1CC2(CC(Cn3nccc3C(F)(F)F)C2)C1)N1CC2(CC(c3nc(C4(F)CC4)n[nH]3)C2)C1` [compound 457] showed a concentration for half-maximal inhibition (IC50) of 0.31 nM.

`Cc1sc(CN2CC3(C2)CN(C(=O)N2CC4(CC(c5nc(C6CC6)n[nH]5)C4)C2)C3)nc1C(F)(F)F` [compound 458] returned an IC50 of 22.8 nM.

With `O=C(N1CC(C23CC(c4cccc(OC(F)(F)F)c4)(C2)C3)C1)N1CC2(CC(c3nc(C4CC4)n[nH]3)C2)C1` [compound 459], the half-maximal inhibitory concentration (IC50) was 0.02 nM.

For `O=C(N1CC2(CC(Cc3ccc(C(F)(F)F)nn3)C2)C1)N1CC2(CC(c3nc(C4(F)CC4)n[nH]3)C2)C1` [compound 460], the 50% inhibitory concentration (IC50) is 2.64 nM.

`Cn1ncc(C(F)(F)F)c1CN1CCC2(CC1)CN(C(=O)N1CC3(CC(c4nc(C5CC5)n[nH]4)C3)C1)C2` [compound 461] yielded an IC50 of 1 nM.

`CP(C)(=O)c1ccc(CC2CC3(C2)CN(C(=O)N2CC4(CC(c5nc(C6CC6)n[nH]5)C4)C2)C3)c(F)c1` [compound 462] gave an IC50 of 3.09 nM.

The molecule `N#Cc1cc(F)ccc1C12CC(C3CN(C(=O)N4CC5(CC(c6nc(C7CC7)n[nH]6)C5)C4)C3)(C1)C2` [compound 463] yielded an IC50 of 0.56 nM.

Take `N#Cc1cc(CC2CC3(C2)CN(C(=O)N2CC4(CC(c5nc(C6(F)CC6)n[nH]5)C4)C2)C3)cc(C(F)(F)F)c1` [compound 464]: the IC50 was found to be 0.07 nM.

`O=C(N1CC2(CC(Cc3cnc(C(F)(F)F)cn3)C2)C1)N1CC2(CC(c3nc(C4CC(F)(F)C4)n[nH]3)C2)C1` [compound 465] showed a half-maximal inhibitory concentration (IC50) of 114 nM.

As to `CC(C)(C)Cc1nnc(C23CC(C4CN(C(=O)N5CC6(CC(c7nc(C8(O)CC8)n[nH]7)C6)C5)C4)(C2)C3)s1` [compound 466], the 50% inhibitory concentration (IC50) worked out at 22.9 nM. Against the preceding molecule, the IC50 is about 5-fold lower.

Regarding `O=C(N1CC2(CC(Cc3ccc(C(F)(F)F)cc3F)C2)C1)N1CC2(CC(c3nc(C4CC(F)(F)C4)n[nH]3)C2)C1` [compound 467], it took 0.33 nM to reach half-maximal inhibition (IC50). Against the preceding molecule, the IC50 is about 69-fold lower.

The molecule `O=C(N1CC2(CC(Cc3ccc(F)cc3C(F)(F)F)C2)C1)N1CC2(CC(c3nc(C4CC(F)(F)C4)n[nH]3)C2)C1` [compound 468] yielded an IC50 of 2.5 nM. This IC50 is about 7.6-fold higher than that of the molecule before.

As for `O=C(N1CC(c2cnc(OCC3(C(F)(F)F)CC3)cn2)C1)N1CC2(CC(c3nc(C4CC4)n[nH]3)C2)C1` [compound 469], the half-maximal inhibitory concentration (IC50) was determined as 1.12 nM.

As to `O=C(N1CC(OCc2ccc(S(=O)(=O)C(F)(F)F)cc2F)C1)N1CC2(CC(c3nc(C4(F)CC4)n[nH]3)C2)C1` [compound 470], the IC50 was 5.08 nM.

`O=C(N1CC(c2ccc(C3(C(F)(F)F)CC3)cn2)C1)N1CC2(CC(c3nc(C4(O)CC4)n[nH]3)C2)C1` [compound 471] registered an IC50 of 20.3 nM.

`Cn1cc(CN2CC3(C2)CN(C(=O)N2CC4(CC(c5nc(C6CC6)n[nH]5)C4)C2)C3)c(C(F)(F)F)n1` [compound 472] returned a 50% inhibitory concentration (IC50) of 17.7 nM.

`Cn1ncc(CC2CC3(C2)CN(C(=O)N2CC4(CC(c5nc(C6(F)CC6)n[nH]5)C4)C2)C3)c1C(F)(F)F` [compound 475]: inhibition was half-maximal at 0.08 nM (IC50).

On to `N#Cc1cc(C(F)(F)F)ccc1CC1CC2(C1)CN(C(=O)N1CC3(CC(c4nnc(C5(O)CC5)[nH]4)C3)C1)C2` [compound 477], for which the IC50 was 0.08 nM.

On to `Cn1cc(C(F)(F)F)c(CC2CC3(C2)CN(C(=O)N2CC4(CC(c5nc(C6CC6)n[nH]5)C4)C2)C3)n1` [compound 479], for which the concentration for half-maximal inhibition (IC50) came out at 0.18 nM.

Regarding `N#Cc1ccc(=O)n(CC2CC3(C2)CN(C(=O)N2CC4(CC(c5nc(C6CC6)n[nH]5)C4)C2)C3)c1` [compound 480], half-maximal inhibition (IC50) was put at 12.1 nM.

In turn, `CS(=N)(=O)c1cc(C(F)(F)F)ccc1CC1CC2(C1)CN(C(=O)N1CC3(CC(c4nc(C5CC5)n[nH]4)C3)C1)C2` (stereo not drawn) [compound 481] had an IC50 of 1.06 nM.

Consider `O=C(N1CC2(CC(c3nc(C4(O)CC4)n[nH]3)C2)C1)N1CC2(CCN(Cc3cccc(S(=O)(=O)C(F)(F)F)c3)C2)C1` [compound 482], for which the 50% inhibitory concentration (IC50) worked out at 3.39 nM.

For `CC(C)(C)c1coc(CN2CC3(C2)CN(C(=O)N2CC4(CC(c5nc(C6CC6)n[nH]5)C4)C2)C3)n1` [compound 483], the IC50 came out at 2.13 nM.

As for `O=C(N1CC2(CC(c3nc(C4(O)CC4)n[nH]3)C2)C1)N1CC2(CC(S(=O)(=O)c3cccc(OC(F)(F)F)c3)C2)C1` [compound 484], half-maximal inhibition (IC50) was put at 89.2 nM.

`O=C(N1CC2(CC(c3nc(C4CC4)n[nH]3)C2)C1)N1CC2(CN(Cc3nnc(C(F)(F)F)s3)C2)C1` [compound 485] showed an IC50 of 64.5 nM.

Regarding `N#Cc1ccc(CC2CC3(C2)CN(C(=O)N2CC4(CC(c5nc(C6CC(F)(F)C6)n[nH]5)C4)C2)C3)c(F)c1` [compound 486], inhibition was half-maximal at 10.6 nM (IC50).

Molecule `CC(C)(C)c1nnc(CN2CC3(C2)CN(C(=O)N2CC4(CC(c5nc(C6CC6)n[nH]5)C4)C2)C3)s1` [compound 487] registered an IC50 of 9.82 nM. This IC50 and that of the molecule before are within 1.5-fold of each other.

`O=C(N1CC2(CC(Cc3nc(C(F)(F)F)cs3)C2)C1)N1CC2(CC(c3nc(C4CC(F)(F)C4)n[nH]3)C2)C1` [compound 489] returned a 50% inhibitory concentration (IC50) of 75.3 nM.

Regarding `O=C(N1CC(C23CC(c4ccc(OC(F)(F)F)cc4)(C2)C3)C1)N1CC2(CC(c3nc(C4CC4)n[nH]3)C2)C1` [compound 490], the midpoint of inhibition, the IC50, lay at 0.05 nM.

As to `Cn1nc(CC2CC3(C2)CN(C(=O)N2CC4(CC(c5nc(C6(O)CC6)n[nH]5)C4)C2)C3)cc1C(F)(F)F` [compound 491], the IC50 stood at 0.34 nM.

As for `CC(C)(C)Cc1nnc(C23CC(C4CN(C(=O)N5CC6(CC(c7nc(C8(F)CC8)n[nH]7)C6)C5)C4)(C2)C3)s1` [compound 492], 3.84 nM corresponded to half-maximal inhibition (IC50). This IC50 is about 11-fold higher than that of the molecule before.

Consider `CS(=N)(=O)c1cccc(CC2CC3(C2)CN(C(=O)N2CC4(CC(c5nc(C6CC(F)(F)C6)n[nH]5)C4)C2)C3)c1` (stereo not drawn) [compound 493], for which the 50% inhibitory concentration (IC50) was found to be 956 nM.

For the molecule `O=C(N1CC2(CC(Cc3n[nH]c(C(F)(F)F)n3)C2)C1)N1CC2(CC(c3nc(C4CC4)n[nH]3)C2)C1` [compound 494], the concentration for half-maximal inhibition (IC50) worked out at 3.69 nM. This IC50 is about 260-fold lower than that of the molecule before.

In turn, `O=C(N1CC2(CC(Cc3cc(C(F)F)[nH]n3)C2)C1)N1CC2(CC(c3nc(C4CC(F)(F)C4)n[nH]3)C2)C1` [compound 495] gave a concentration for half-maximal inhibition (IC50) of 140 nM.

As to `N=S(=O)(c1ccc(C2CN(C(=O)N3CC4(CC(c5nc(C6(O)CC6)n[nH]5)C4)C3)C2)cc1)C1CC1` (stereo not drawn) [compound 496], the midpoint of inhibition, the IC50, lay at 37 nM. Against the preceding molecule, the IC50 is about 3.8-fold lower.

`O=C(N1CC2(CC(c3cncc(F)c3)C2)C1)N1CC2(CC(c3nnc(C4CC4)[nH]3)C2)C1` [compound 497] showed an IC50 of 22.3 nM.

For the molecule `CC(C)(C)Cc1nnc(C23CC(C4CCN(C(=O)N5CC6(CC(c7nc(C8(O)CC8)n[nH]7)C6)C5)CC4)(C2)C3)o1` [compound 498], the IC50 amounted to 195 nM.
